According to US20260365696A1, “INHIBITORS OF PTP1B / NCK1 INTERACTION AND METHODS OF MAKING AND USING SAME” (Radella Pharmaceuticals LLC, priority 2023, published 2026):

Legend:
[1] = Microsomal metabolic stability; type: in vitro ADME; settings: human liver microsomes 0.5 mg/mL, 1 μM, 37 °C
Experimental: Microsomal Metabolic Stability (human liver microsomes): Human liver microsomes (final protein concentration 0.5 mg/mL), 0.1 M phosphate buffer pH 7.4 and test compound MD20 (final substrate concentration 1 μM; final DMSO concentration 0.25%) were pre-incubated at 37 °C prior to the addition of NADPH (final concentration 1 mM) to initiate the reaction. A minus cofactor control incubation was included for each compound tested where 0.1 M phosphate buffer pH 7.4 was substituted for NADPH (“minus NADPH”).
Each compound was incubated for 0, 5, 15, 30 and 45 min. The control (minus NADPH) was incubated for 45 min only. The reactions were stopped by transferring incubate in to acetonitrile at the appropriate time points, in a 1:3 ratio. The termination plates were centrifuged at 3,000 rpm for 20 min at 4 °C to precipitate the protein. Following protein precipitation, the sample supernatants were combined in cassettes of up to 4 compounds, internal standard was added and samples were analyzed using Cyprotex generic LC-MS/MS conditions. The time point at which 30-70% of parent had degraded was then investigated at 3 different levels of metabolite profiling and/or identification. The intrinsic clearance (CLint) of the test compound was calculated.

LDLR−/− mice = assay: LDLR−/− mouse model of atherosclerosis; type: in vivo; settings: 30 mg/kg IP daily
Source text: Animals: All animals were housed and tested following European (Directive on the Protection of Animals used for Scientific Purposes, 2010/63/EU) and UK Home Office regulations. Experiments were approved by the University Ethics Board and carried out in accordance with the Animal (Scientific Procedures) Act 1986 and following ARRIVE guidelines. LDLR−/− male mice (~6-7 weeks old) were purchased from Jackson, US. All mice received a high fat/high cholesterol diet (42% fat plus 0.2% cholesterol, #TD.88137, Envigo, US), to induce atherosclerosis phenotype associated with obesity and type 2 diabetes. All mice had ad libitum access to food and water and were kept in a 12 h light/dark cycle.
Treatments: After 8 weeks of high fat/high cholesterol diet feeding, mice were randomized in to control (n=10) or MD20 30 mg/kg (n=9) groups. MD20 compound (30 mg/kg) was administered once daily via intraperitoneal (IP) injection for 7 weeks, whereas control mice received a daily IP injection of vehicle (PBS). MD20 was kept at −20 °C and dissolved in sterile phosphate buffered saline (PBS) freshly every day before the injection. Two mice died during the study and final numbers per group were: control (n=8) and MD20 30 mg/kg (n=9).
Bodyweights and body mass composition: Body weights were recorded during the study, and fat and lean mass composition was analyzed using an EchoMRI scanner (EchoMedical Systems, Houston, TX, U.S.A.).
Metabolic measurements: All animals were 5 h-fasted before metabolic tests. Tail blood glucose was measured using AlphaTRAK 2 glucose strips and glucometer (Abbot, UK).
Glucose and insulin tolerance tests (GTT, ITT) were performed by IP injection of 2 mg/g of glucose (GTT) or 0.6 mU/g insulin (ITT), and glucose levels were measured at 15, 30, 60 and 90 min post-injection.
Serum and liver assays: Trunk-derived blood was collected from 5 h-fasted mice into serum separator microtubes and kept at −80 °C. Serum was used for insulin (#EZRMI-13K, Merck), leptin (#90030, Crystal Chem), free fatty acids (FFA; #mak044, Sigma-Aldrich), cholesterol (#MAK043, Sigma Aldrich), and alanine and aspartate aminotransferase (ALT and AST; ab105134 and ab105135, Abcam) analyses. Serum and liver triglycerides were determined using triglyceride reagents (#T2449, #F6428, #G7793, Sigma Aldrich).
Aortic plaques analyses: Hearts with aortas attached were immersed in formalin and stored at 4 °C for 24 h following dissection, and transferred in to PBS thereafter. Aortas were sub-dissected under microscope and prepared for staining with Oil Red O. Images were captured using a light microscope. Plaque formation was quantified using ImageJ software, and results were expressed as % plaque area.
Statistical analyses: Data were reported as means±SEM and analyzed using one- or two-way ANOVA with Bonferroni post hoc tests, as appropriate. GraphPad Prism (V8, GraphPad Software, Inc., San Diego, California, USA) was used for statistical analyses. P-values <0.05 were considered significant.

GLUT4 = GLUT4 gene expression in adipose tissue of LDLR−/− mice (qPCR); type: in vivo, mouse; settings: 30 mg/kg IP daily, vs control
Experimental: (§1) FIGS. 30A-30E are graphs showing expression of various genes in tissues of HFD-fed LDLR−/− mice following 6 weeks of daily IP administration of MD20 (30 mg/kg) or a vehicle control. Mice were fasted for 5 hours at the conclusion of the experiment, liver and white adipose tissue (“WAT”) samples were collected, and gene expression was measured by qRT-PCR. Expression of glucose transporter 4 (GLUT4; FIG. 30A) and stearoyl-CoA-desaturase 1 (SCD1; FIG. 30B) was measured in adipose tissue, and expression of Glucose-6-phosphatase (G6P; FIG. 30C), Activating Transcription Factor 4 (ATF4; FIG. 30D), and 3-hydroxy-3-methylglutaryl (HMGCS; FIG. 30E) was measured in liver tissue. Data represent mean±SEM; statistical differences were determined using two tailed student's t-test.
(§2) Gene expression analyses: Livers and adipose tissue were collected from 5 h-fasted animals and snap-frozen in liquid nitrogen. RNA was isolated from frozen liver tissue using TRIzole (Sigma, UK) and cDNA was synthesized from 1 μg RNA using bioscript cDNA synthesis kit (Bioline, UK), oligo (dT) 18 (SEQ ID NO: 170), and random hexamer primers.
(§3) Genes of interest were amplified by quantitative PCR (qPCR) using gene-specific primers and GoTaq qPCR master mix (Promega, Madison, WI, USA).

G6Pase = G6Pase gene expression in liver of LDLR−/− mice (qPCR); type: in vivo, mouse; settings: 30 mg/kg IP daily, vs control
Experimental: as §1, §2, §3

HMGCS = HMGCS gene expression in liver of LDLR−/− mice (qPCR); type: in vivo, mouse; settings: 30 mg/kg IP daily, vs control
Experimental: as §1, §2, §3

With Ac-PRPPKR-NH2 [MD20, Ac-PRPPKR-NH2] the “intrinsic clearance (CL int)” value [1] was 4.90, the “% change in fat mass” value (LDLR−/− mice; vs control) was “a trend to ward a decreased % change in fat mass” and the aortic plaque area (LDLR−/− mice; vs control) was “No statistically significant differences”. The “% change in body weights” value (LDLR−/− mice; vs vehicle) was “significant interaction”, the “body weights during the weeks of treatment” value (LDLR−/− mice; vs vehicle) was “significant interaction” and the fat mass content (LDLR−/− mice; vs vehicle) was “No statistically significant differences”. The lean mass (LDLR−/− mice; vs vehicle) was “No significant changes in lean mass”, the raw body weights (LDLR−/− mice; vs vehicle) was “No statistically significant differences” and the “glucose tolerance test (GTT)” value (LDLR−/− mice; 2 mg/g glucose) was “No statistically significant differences”. For the same substance, the “insulin tolerance test (ITT)” value (LDLR−/− mice; 0.6 mU/g insulin) was “not statistically significant, slight improvements could be seen”, the hepatic triglycerides (LDLR−/− mice; 5 h-fasted) was “No statistically significant differences” and the “serum ALT” value (LDLR−/− mice; 5 h-fasted) was “No statistically significant differences”. The “serum AST” value (LDLR−/− mice; 5 h-fasted) was “No statistically significant differences”, the serum cholesterol (LDLR−/− mice; 5 h-fasted) was “No statistically significant differences” and the “serum free fatty acids” value (LDLR−/− mice; 5 h-fasted) was “No statistically significant differences”. The serum insulin (LDLR−/− mice; 5 h-fasted) was “No statistically significant differences”, the serum leptin (LDLR−/− mice; 5 h-fasted) was “No statistically significant differences” and the serum triglycerides (LDLR−/− mice; 5 h-fasted) was “No statistically significant differences”. For the same substance, the “GLUT4 gene expression in adipose tissue” value (GLUT4) was “increased”, the “G6Pase gene expression in liver” value (G6Pase) was “decreased” and the HMGCS expression (HMGCS) was “upregulated”.
